Assay results from patent US8728515B2, “Adjuvants for use in vaccination” (Bangor University, priority 2008, dated 2014).
One block for each compound: values may come before it.

Key:
C57BL/6 mice = assay: Inflammatory cell infiltration to the airways and lung tissue damage after intratracheal mycolic acid liposomes; type: in vivo; settings: liposomes intratracheally, 25 μg mycolic acids/100 μl/mouse, after 48 hours
Description: (§1) Female C57BL/6J mice were purchased from Janvier and housed under specific pathogen free conditions in individually ventilated cages and fed ad libitum. Mice were 8-12 weeks old at the start of experiments.
(§2) Briefly, the compounds were mixed with phosphatidylcholine (Sigma) in chloroform. The chloroform was evaporated and the lipids recovered in sterile saline. After ultrasound sonication and vortexing, samples of 25 μg mycolic acids/100 μl/mouse were administered intratracheally. A liposome control was prepared similarly, but without the addition of any mycolic acid compound.
In order to be considered safe for human administration, compounds should preferably cause as little local inflammation or resulting tissue changes as possible.
After 48 hours, mice were sacrificed and a broncho-alveolar lavage (BAL) was performed to measure the airway cell types and numbers by flowcytometry. Increased cell numbers and the appearance of granulocytes (mainly neutrophils) in the BAL-fluid are indicative for cell recruitment to the airways as result of an inflammatory reaction.
Lavaged lungs were ectomised to allow for histo-pathological examination of the lung tissue. A haematoxylin and eosin staining of the paraffin lung sections was followed by a thorough examination by a skilled pathologist who scored the sections according to the following criteria in a double-blinded manner: […]

airway CD11c+ cells = assay: Gene transcription profiling of airway CD11c+ cells (RT-qPCR on broncho-alveolar lavage cells after intratracheal liposomes); type: in vivo, mouse; settings: liposomes intratracheally, after 48 hours
Description: as §1, §2
Airway CD11c^+ cells include alveolar macrophages and dendritic cells, which are professional phagocytes and the most important cell types in the early recognition of non-self threats to the airways. Next to mounting an immediate appropriate innate immune response to these threats, CD11c^+ cells alert and instruct adaptive immune responses by means of 3 different signals: antigen-presentation, surface expression of T-cell co-stimulatory molecules and secretion of instruction cytokines. Whereas dendritic cells migrate to the draining lymph nodes in order to initiate a peripheral antigen-specific immune response, alveolar macrophages remain in the airways to further control local inflammation, but also to locally attract and orchestrate the acquired immune response by lymphocytes.
In order for a locally applied vaccine to be effective, safe adjuvants that give the appropriate signal to CD11c^+ cells are needed to both increase the immunogenicity of the vaccine and direct the type of the acquired immune response. […] After 48 hours, the mice were sacrificed and broncho-alveolar lavage performed to measure the CD11c^+-cell gene transcription by RT-qPCR.

melting point: 66 to 68 °C
SMILES: CCCCCCCCCCCCCCCCCCCCCCCC[C@@H](C(=O)O)[C@H](O)CCCCCCCCCCCCCCC[C@@H]1C[C@@H]1CCCCCCCCCCCCCCCCCCC(=O)[C@@H](C)CCCCCCCCCCCCCCCCCC (single isomer, unassigned) [Example 3]

SMILES: CCCCCCCCCCCCCCCCCCCCCCCC[C@@H](C(=O)O)[C@H](O)CCCCCCCCCCCCCCCC[C@H]1C[C@@H]1[C@@H](C)CCCCCCCCCCCCCCCCCCC(=O)C(C)CCCCCCCCCCCCCCCCCC (some centres unmarked) [Compound 4]
lung tissue changes (histo-pathological examination of lung sections) (C57BL/6 mice): did not cause any significant lung tissue changes

SMILES: CCCCCCCCCCCCCCCCCCCCCCCC[C@@H](C(=O)O)[C@H](O)CCCCCCCCCCCCCCCCC[C@@H]1CC1CCCCCCCCCCCCCCCC[C@@H](OC)[C@@H](C)CCCCCCCCCCCCCCCCCC (some centres unmarked) [Compound 6]
type of macrophage activation (iNOS = classical, Fizz1 = alternative marker) (airway CD11c+ cells; alveolar macrophages): mixed type of activation
KC (CXCL1) expression (airway CD11c+ cells): increased
MCP-1 (CCL2) expression (airway CD11c+ cells): enhance MCP-1 expression even to a greater extend than crude-MA
expression of IL-12p40 (airway CD11c+ cells): strongly stimulate
induction of expression of IL-10 (airway CD11c+ cells): maintained
expression of the inflammatory cytokines TNF-alpha and IL-6 (airway CD11c+ cells; compared with crude-MA): less pronounced or absent
